Read-outs that look alike come from different tables or passages of the source. Numbered stars: 1 amine (or outer) side, 2 acyl side, 3 side chain; on linkers, the order of the positions; unused ones are H or OH. Square brackets hold non-standard residues; d marks the D form. Side chains are listed from the residue outwards. Peptide text beside a SMILES is read from it. * marks the point of attachment. γGlu = O=C(O)[C@H](CCC(=O)[*:2])N[*:1]; Palmitoyl = CCCCCCCCCCCCCCCC(=O)*; αMeF = C[C@](N)(Cc1ccccc1)C(=O)O; αMeK = C[C@](N)(CCCCN)C(=O)O; Lauroyl = CCCCCCCCCCCC(=O)*; αMeS = C[C@](N)(CO)C(=O)O; AEEA = NCCOCCOCC(=O)O; Aib = CC(C)(N)C(=O)O
Legend:
Format in all cases: cell-based
[1] = target: T1, human GLP-1 receptor (GLP-1R) (Homo sapiens, UniProt P43220); test: cAMP assay, human GLP-1R cells
T1 construct: expressed in transfected cells
T1 sequence (P43220 24-463): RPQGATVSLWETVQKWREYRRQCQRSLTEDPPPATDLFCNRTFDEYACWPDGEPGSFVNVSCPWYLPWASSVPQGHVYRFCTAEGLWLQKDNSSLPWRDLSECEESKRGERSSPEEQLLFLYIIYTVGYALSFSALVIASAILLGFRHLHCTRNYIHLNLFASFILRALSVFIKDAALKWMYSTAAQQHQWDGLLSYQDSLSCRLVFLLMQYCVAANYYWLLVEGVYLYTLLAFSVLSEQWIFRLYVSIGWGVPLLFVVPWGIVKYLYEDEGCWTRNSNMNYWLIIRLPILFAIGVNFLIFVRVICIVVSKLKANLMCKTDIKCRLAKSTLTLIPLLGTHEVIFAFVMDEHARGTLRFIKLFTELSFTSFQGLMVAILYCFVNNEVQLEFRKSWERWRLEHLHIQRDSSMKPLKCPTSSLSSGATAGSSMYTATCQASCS
Experimental: Sample dilutions are made in duplicate.
A frozen cryo-vial of cells expressing the receptor of interest is thawed rapidly in a water-bath, transferred to pre-warmed assay buffer and spun at 240×g for 5 minutes. Cells are re-suspended in assay buffer at a batch-dependent optimized concentration (e.g. hGCGR cells at 2×10^5 cells/ml, hGLP-1R and hGIPR cells at 1×10^5 cells/ml).
To this, 5 μL cell suspension is added and the plates incubated at room temperature for 30 minutes.
cAMP levels are measured using a commercially available cAMP dynamic 2 HTRF kit (Cisbio, Cat #62AM4PEJ), following the two step protocol as per manufacturer's recommendations. In brief; anti-cAMP cryptate (donor fluorophore) and cAMP-d2 (acceptor fluorophore) are made up separately by diluting each 1/20 in conjugate & lysis buffer provided in the kit. 5 μL anti-cAMP cryptate is added to wells of the assay plate, and 5 μL cAMP-d2 is added to wells except non-specific binding (NSB) wells, to which conjugate and lysis buffer are added. […] EC50 values of the synthetic peptides determined in cAMP assays are then determined.
Data is transformed to % Delta F as described in the manufacturer's guidelines and analyzed by 4-parameter logistic fit to determine EC50 values. […] To compare the balance of activities at the GLP-1R and GCGR between different peptides and across different conditions, these can be correlated, where the EC50's are related to those of comparator peptides.

[2] = target: T2, human glucagon receptor (GCGR) (Homo sapiens, UniProt P47871); test: cAMP assay, human GCGR cells
T2 construct: expressed in transfected cells
T2 sequence (P47871 26-477): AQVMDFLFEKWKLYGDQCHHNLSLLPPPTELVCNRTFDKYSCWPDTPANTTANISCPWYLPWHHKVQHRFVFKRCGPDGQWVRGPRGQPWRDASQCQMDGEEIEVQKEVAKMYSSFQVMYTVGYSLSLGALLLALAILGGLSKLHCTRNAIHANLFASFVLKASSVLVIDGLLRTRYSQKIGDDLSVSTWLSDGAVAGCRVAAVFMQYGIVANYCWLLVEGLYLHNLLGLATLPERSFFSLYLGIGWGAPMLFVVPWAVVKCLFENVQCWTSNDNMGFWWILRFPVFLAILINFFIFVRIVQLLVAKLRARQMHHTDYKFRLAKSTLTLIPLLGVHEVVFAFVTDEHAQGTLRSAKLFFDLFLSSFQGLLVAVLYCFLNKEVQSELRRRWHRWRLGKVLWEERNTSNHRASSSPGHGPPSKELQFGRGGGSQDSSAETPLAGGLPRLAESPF
Procedure, shortened: (§1)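 Peptide-stimulated cAMP measured by two-step HTRF after a 30 min room-temperature incubation with receptor-expressing cells (hGLP-1R, hGIPR at 1×10^5 cells/ml; hGCGR at 2×10^5 cells/ml). Duplicate dilutions; EC50 from 4-parameter logistic fit of % Delta F.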

[3] = target: T3, human glucose-dependent insulinotropic peptide receptor (GIPR) (Homo sapiens, UniProt P48546); test: cAMP assay, human GIPR cells
T3 construct: expressed in transfected cells
T3 sequence (P48546 22-466): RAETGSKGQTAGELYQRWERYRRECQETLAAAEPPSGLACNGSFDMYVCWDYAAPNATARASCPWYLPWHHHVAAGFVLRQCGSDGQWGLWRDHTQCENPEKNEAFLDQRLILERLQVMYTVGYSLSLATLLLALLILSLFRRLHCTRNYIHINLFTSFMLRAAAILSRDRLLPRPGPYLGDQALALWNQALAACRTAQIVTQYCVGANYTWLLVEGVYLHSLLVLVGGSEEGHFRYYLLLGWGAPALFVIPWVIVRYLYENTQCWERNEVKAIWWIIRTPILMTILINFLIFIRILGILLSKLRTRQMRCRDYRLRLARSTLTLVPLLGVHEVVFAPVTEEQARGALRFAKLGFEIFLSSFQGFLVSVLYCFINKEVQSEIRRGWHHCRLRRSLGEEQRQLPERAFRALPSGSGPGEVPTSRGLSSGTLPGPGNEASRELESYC
Procedure, shortened: as §1

[4] = cAMP assay, first determination (n1), read-out: Primary assay EC50 GLP-1R n1
[5] = cAMP assay, second determination (n2), read-out: Primary assay EC50 GLP-1R n2
[6] = mean of n1 and n2, read-out: Mean pM GLP-1R
[7] = cAMP assay, first determination (n1), read-out: Primary assay EC50 Gluc-R (n1)
[8] = cAMP assay, second determination (n2), read-out: Primary assay EC50 Gluc-R (n2)
[9] = cAMP assay, first determination (n1), read-out: Primary assay EC50 GIP-R (n1)
[10] = cAMP assay, second determination (n2), read-out: Primary assay EC50 GIP-R (n2)

SMILES	EC50 [1, 4] [pM]	EC50 [1, 5] [pM]	EC50 [1, 6] [pM]	EC50 [2, 7] [nM]	EC50 [2, 8] [nM]	EC50 [3, 9] [nM]	EC50 [3, 10] [nM]	EC50 ([1]; tris-lipidated peptides, mean of n1 and n2, read-out: Primary assay EC50 Mean pM GLP-1R) [pM]	EC50 ([1]; tris-lipidated peptides, replicate n1, read-out: Primary assay EC50 GLP-1R n1) [pM]	EC50 ([1]; tris-lipidated peptides, replicate n2, read-out: Primary assay EC50 GLP-1R n2) [pM]	EC50 ([2]; tris-lipidated peptides, second replicate, read-out: Primary assay EC50 Gluc-R (n2)) [nM]	EC50 ([3]; tris-lipidated peptides, second replicate, read-out: Primary assay EC50 GIP-R (n2)) [nM]
CCCCCCCCCCCCCCCC(=O)N[C@@H](CCC(=O)NCCCC[C@H](NC(=O)[C@H](CC(=O)O)NC(=O)[C@H](CO)NC(=O)[C@@H](NC(=O)[C@](C)(Cc1ccccc1)NC(=O)[C@H](CO)NC(=O)CNC(=O)[C@H](CCC(N)=O)NC(=O)C(C)(C)NC(=O)[C@@H](N)Cc1c[nH]cn1)[C@@H](C)O)C(=O)N[C@@H](CO)C(=O)N[C@@H](CCC(=O)O)C(=O)N[C@@](C)(Cc1ccccc1)C(=O)N[C@@H](CC(C)C)C(=O)N[C@@H](CC(=O)O)C(=O)N[C@@H](CO)C(=O)N[C@@H](CCC(=O)O)C(=O)N[C@@H](CCCNC(=N)N)C(=O)N[C@@H](C)C(=O)N[C@@H](CCCNC(=N)N)C(=O)N[C@@H](CC(=O)O)C(=O)N[C@@](C)(Cc1ccccc1)C(=O)N[C@H](C(=O)N[C@@H](C)C(=O)N[C@@](C)(Cc1ccccc1)C(=O)N[C@@H](CC(C)C)C(=O)N[C@@H](CCC(=O)O)C(=O)N[C@@H](C)C(=O)NCC(=O)NCC(N)=O)C(C)C)C(=O)O [compound 13] (H-H[Aib]QGS[αMeF]TSDK([γGlu-Palmitoyl])SE[αMeF]LDSERARD[αMeF]VA[αMeF]LEAGG-NH2)	22	9.6	16	7.6	4.1	0.69	0.63	–	–	–	–	–
CCCCCCCCCCCCCCCCCC(=O)N[C@@H](CCC(=O)N[C@@H](CCC(=O)NCCCC[C@H](NC(=O)[C@H](C)NC(=O)[C@H](C)NC(=O)[C@H](CCC(=O)O)NC(=O)CNC(=O)[C@H](CCC(=O)O)NC(=O)[C@H](CC(C)C)NC(=O)[C@](C)(Cc1ccccc1)NC(=O)[C@H](CO)NC(=O)[C@](C)(CO)NC(=O)[C@@H](NC(=O)[C@H](CC(=O)O)NC(=O)[C@H](CO)NC(=O)[C@@H](NC(=O)[C@](C)(Cc1ccccc1)NC(=O)[C@H](CO)NC(=O)CNC(=O)[C@H](CCC(=O)O)NC(=O)C(C)(C)NC(=O)[C@@H](N)Cc1c[nH]cn1)[C@@H](C)O)C(C)C)C(=O)N[C@@H](CCC(=O)O)C(=O)N[C@@](C)(Cc1ccccc1)C(=O)N[C@H](C(=O)N[C@@H](C)C(=O)N[C@@](C)(Cc1ccccc1)C(=O)N[C@H](C(=O)N[C@H](C(=O)N[C@@](C)(CCCCN)C(=O)NCC(=O)NCC(N)=O)C(C)C)C(C)C)[C@@H](C)CC)C(=O)O)C(=O)O [compound 147]	32	14	23.2	≥ 27	≥ 27	≥ 27	≥ 27	–	–	–	–	–
CCCCCCCCCCCC(=O)N[C@@H](CCC(=O)NCCOCCOCC(=O)NCCOCCOCC(=O)NCCCC[C@H](NC(=O)[C@H](C)NC(=O)[C@@H](NC(=O)[C@H](Cc1ccccc1)NC(=O)[C@H](CCCCNC(=O)COCCOCCNC(=O)COCCOCCNC(=O)CC[C@H](NC(=O)CCCCCCCCCCC)C(=O)O)NC(=O)[C@](C)(CCCCN)NC(=O)[C@H](C)NC(=O)[C@H](C)NC(=O)[C@H](CCC(=O)O)NC(=O)CNC(=O)[C@H](CCC(=O)O)NC(=O)[C@H](CCCCNC(=O)COCCOCCNC(=O)COCCOCCNC(=O)CC[C@H](NC(=O)CCCCCCCCCCC)C(=O)O)NC(=O)[C@H](Cc1ccc(O)cc1)NC(=O)[C@H](CO)NC(=O)[C@](C)(CO)NC(=O)[C@@H](NC(=O)[C@H](CC(=O)O)NC(=O)[C@H](CO)NC(=O)[C@@H](NC(=O)[C@](C)(Cc1ccccc1)NC(=O)[C@H](CO)NC(=O)CNC(=O)[C@H](CCC(=O)O)NC(=O)C(C)(C)NC(=O)[C@@H](N)Cc1c[nH]cn1)[C@@H](C)O)C(C)C)[C@@H](C)CC)C(=O)N[C@H](C(=O)N[C@H](C(=O)N[C@@H](CCC(=O)O)C(=O)NCC(=O)NCC(N)=O)C(C)C)C(C)C)C(=O)O [compound 470] (H-H[Aib]EGS[αMeF]TSDV[αMeS]SYK([AEEA-AEEA-γGlu-Lauroyl])EGEAA[αMeK]K([AEEA-AEEA-γGlu-Lauroyl])FIAK([AEEA-AEEA-γGlu-Lauroyl])VVEGG-NH2; N-terminus assumed)	–	–	–	–	–	–	–	31.3	26	36.5	20	20
CCCCCCCCCCCCCCCC(=O)N[C@@H](CCC(=O)NCCCC[C@H](NC(=O)CNC(=O)CNC(=O)[C@](C)(CCCCN)NC(=O)[C@@H](NC(=O)[C@@H](NC(=O)[C@](C)(Cc1ccccc1)NC(=O)[C@H](C)NC(=O)[C@@H](NC(=O)[C@](C)(Cc1ccccc1)NC(=O)[C@H](CCC(=O)O)NC(=O)[C@](C)(CCCCN)NC(=O)[C@H](C)NC(=O)[C@H](C)NC(=O)[C@H](CCC(=O)O)NC(=O)CNC(=O)[C@H](CCC(=O)O)NC(=O)[C@H](CC(C)C)NC(=O)[C@](C)(Cc1ccccc1)NC(=O)[C@H](CO)NC(=O)[C@](C)(CO)NC(=O)[C@@H](NC(=O)[C@H](CC(=O)O)NC(=O)[C@H](CC(=O)O)NC(=O)[C@@H](NC(=O)[C@](C)(Cc1ccccc1)NC(=O)[C@H](CO)NC(=O)CNC(=O)[C@H](CCC(=O)O)NC(=O)C(C)(C)NC(=O)[C@@H](N)Cc1c[nH]cn1)[C@@H](C)O)C(C)C)[C@@H](C)CC)C(C)C)C(C)C)C(N)=O)C(=O)O [compound 35] (H-H[Aib]EGS[αMeF]TDDV[αMeS]S[αMeF]LEGEAA[αMeK]E[αMeF]IA[αMeF]VV[αMeK]GGK([γGlu-Palmitoyl])-NH2; N-terminus assumed)	4900	1700	3260	≥ 89	≥ 27	≥ 89	≥ 27	–	–	–	–	–
CCCCCCCCCCCC(=O)NCCCCCC(=O)NCCCC[C@H](NC(=O)[C@H](C)NC(=O)[C@H](C)NC(=O)[C@H](CCC(=O)O)NC(=O)CNC(=O)[C@H](CCC(=O)O)NC(=O)[C@H](CC(C)C)NC(=O)[C@](C)(Cc1ccccc1)NC(=O)[C@H](CO)NC(=O)[C@](C)(CO)NC(=O)[C@@H](NC(=O)[C@H](CC(=O)O)NC(=O)[C@H](CO)NC(=O)[C@@H](NC(=O)[C@](C)(Cc1ccccc1)NC(=O)[C@H](CO)NC(=O)CNC(=O)[C@H](CCC(=O)O)NC(=O)C(C)(C)NC(=O)[C@@H](N)Cc1c[nH]cn1)[C@@H](C)O)C(C)C)C(=O)N[C@@H](CCC(=O)O)C(=O)N[C@@](C)(Cc1ccccc1)C(=O)N[C@H](C(=O)N[C@@H](C)C(=O)N[C@@](C)(Cc1ccccc1)C(=O)N[C@H](C(=O)N[C@H](C(=O)N[C@@](C)(CCCCN)C(=O)NCC(=O)NCC(N)=O)C(C)C)C(C)C)[C@@H](C)CC [compound 131]	14	9.9	11.7	≥ 29	≥ 29	≥ 29	≥ 29	–	–	–	–	–
CCCCCCCCCCCCCCCCCC(=O)NCCCCCC(=O)NCCCCCC(=O)NCCCCCC(=O)NCCCC[C@H](NC(=O)[C@H](C)NC(=O)[C@H](C)NC(=O)[C@H](CCC(=O)O)NC(=O)CNC(=O)[C@H](CCC(=O)O)NC(=O)[C@H](CC(C)C)NC(=O)[C@](C)(Cc1ccccc1)NC(=O)[C@H](CO)NC(=O)[C@](C)(CO)NC(=O)[C@@H](NC(=O)[C@H](CC(=O)O)NC(=O)[C@H](CO)NC(=O)[C@@H](NC(=O)[C@](C)(Cc1ccccc1)NC(=O)[C@H](CO)NC(=O)CNC(=O)[C@H](CCC(=O)O)NC(=O)C(C)(C)NC(=O)[C@@H](N)Cc1c[nH]cn1)[C@@H](C)O)C(C)C)C(=O)N[C@@H](CCC(=O)O)C(=O)N[C@@](C)(Cc1ccccc1)C(=O)N[C@H](C(=O)N[C@@H](C)C(=O)N[C@@](C)(Cc1ccccc1)C(=O)N[C@H](C(=O)N[C@H](C(=O)N[C@@](C)(CCCCN)C(=O)NCC(=O)NCC(N)=O)C(C)C)C(C)C)[C@@H](C)CC [compound 151]	22	15	18.2	≥ 26	≥ 26	≥ 26	≥ 26	–	–	–	–	–

— US10414811B2, “Protease-resistant lipidated GLP-1 analogs” (MEDIMMUNE LIMITED, priority 2015, dated 2019)
